Among the data in US20240002391A1, “4-ALKOXYPYRROLO[2,1-F][1,2,4]TRIAZINES AND PREPARATION AND USES THEREOF” (BioSplice Therapeutics, Inc., priority 2022, published 2024) are IC50 values, retold here.

The assay concerns the target recombinant DYRK1A kinase (Homo sapiens (Human), UniProt Q13627). The experiment in a line: DYRK1A kinase assay (Ser/Thr 18 peptide Z-lyte FRET). The class given is biochemical. As to conditions: DYRK1A kinase activity, Z-lyte Ser/Thr 18 peptide, 15 μM ATP; method text calls the value IC50; read-out: EC50 (the source's name). Here is the method: Representative compounds were screened using the assay procedure for DYRK1A kinase activity as described below.
Each compound was dissolved in DMSO as a 10 mM stock and used to prepare compound source plates. Serial dilution (1:3, 11-point dose-response curves from 10 μM to 0.00016 μM) and compound transfer was performed using the ECHO 550 (Labcyte, Sunnyvale, CA) into 1536-well black-walled round bottom plates (Coming).
The DYRK1A kinase assay was run using the Ser/Thr 18 peptide Z-lyte assay kit according to manufacturer's instructions (Life Technologies-a Division of Thermo-Fisher). This is a non-radioactive assay using fluorescence resonance energy transfer (FRET) between coumarin and fluorescein to detect kinase activity which is represented as a ratio of coumarin emission/fluorescein emission.
Briefly, recombinant DYRK1A kinase, ATP and Ser/Thr peptide 18 were prepared in 1X Kinase buffer to final concentrations of 0.25 μg/mL, 15 μM, and 4 μM respectively. The mixture was allowed to incubate with the representative compounds for one hour at room temperature. All reactions were performed in duplicate. Unphosphorylated (“0% Control”) and phosphorylated (“100% control”) forms of Ser/Thr 18 served as control reactions. Additionally, an 11-point dose-response curve of Staurosporine (luM top) was run to serve as a positive compound control.
After incubation, Development Reagent A was diluted in Development Buffer then added to the reaction and allowed to further incubate for one hour at room temperature. The plate was read at Ex 400 Em 455 to detect the coumarin signal and Ex 400 Em 520 to measure the signal (EnVision Multilabel Plate Reader, PerkinElmer).
The Emission ratio (Em) was calculated as a ratio of the coumarin (C) emission signal (at 445 nm)/Fluorescein (F) emission signal (at 520 nm). The percent phosphorylation was then calculated using the following formula: [1−((Em ratio X F100%)-C100%)/((C0%-C100%) +(Em ratio X (F100%−F0%)))]. Dose-response curves were generated, and inhibitory concentration (IC50) values were calculated using non-linear regression curve fit in the Dotmatics' Studies Software (Bishops Stortford, UK).
With `COc1nc(N[C@H]2CC[C@@](C)(O)CC2)nn2ccc(-c3cnc4nccn4c3)c12` [Compound 4, cis-4-((5-(Imidazo[1,2-a]pyrimidin-6-yl)-4-methoxypyrrolo[2,1-f][1,2,4]triazin-2-yl)amino)-1-methylcyclohexan-1-ol], the IC50 was found to be 1.1 nM.
On to `COc1nc(N[C@H]2C[C@@H](OCCO)C2)nn2ccc(-c3ccn4nccc4c3)c12` [Compound 6, 2-(cis-3-((4-Methoxy-5-(pyrazolo[1,5-a]pyridin-5-yl)pyrrolo[2,1-f][1,2,4]triazin-2-yl)amino)cyclobutoxy)ethan-1-ol], for which the IC50 came to 1.1 nM.
Turning to `COc1nc(N[C@H]2C[C@@](C)(O)C2)nn2ccc(-c3ccn4nccc4c3)c12` [Compound 7, cis-3-((4-Methoxy-5-(pyrazolo[1,5-a]pyridin-5-yl)pyrrolo[2,1-f][1,2,4]triazin-2-yl)amino)-1-methylcyclobutan-1-ol], the IC50 was found to be 4.6 nM.
In the case of `COc1nc(N[C@H]2C[C@](C)(O)C2)nn2ccc(-c3ccn4nccc4c3)c12` [Compound 8, trans-3-((4-Methoxy-5-(pyrazolo[1,5-a]pyridin-5-yl)pyrrolo[2,1-f][1,2,4]triazin-2-yl)amino)-1-methylcyclobutan-1-ol], the IC50 came out at 0.6 nM.
Under `COc1nc(N[C@H]2CC[C@@H](OC)CC2)nn2ccc(-c3ccn4nccc4c3)c12` [Compound 9, 4-Methoxy-N-(cis-4-methoxycyclohexyl)-5-(pyrazolo[1,5-a]pyridin-5-yl)pyrrolo[2,1-f][1,2,4]triazin-2-amine] stands 9960 nM; under `COc1nc(N[C@H]2CC[C@H](OC)CC2)nn2ccc(-c3ccn4nccc4c3)c12` [Compound 10, 4-Methoxy-N-(trans-4-methoxycyclohexyl)-5-(pyrazolo[1,5-a]pyridin-5-yl)pyrrolo[2,1-f][1,2,4]triazin-2-amine], 93.8 nM; under `COc1nc(N[C@H]2CC[C@@H](OCCO)CC2)nn2ccc(-c3ccn4nccc4c3)c12` [Compound 13, 2-((cis-4-((4-Methoxy-5-(pyrazolo[1,5-a]pyridin-5-yl)pyrrolo[2,1-f][1,2,4]triazin-2-yl)amino)cyclohexyl)oxy)ethan-1-ol], 5.5 nM.
As for `COCCO[C@H]1CC[C@@H](Nc2nc(OC)c3c(-c4ccn5nccc5c4)ccn3n2)CC1` [Compound 15, 4-Methoxy-N-(cis-4-(2-methoxyethoxy)cyclohexyl)-5-(pyrazolo[1,5-a]pyridin-5-yl)pyrrolo[2,1-f][1,2,4]triazin-2-amine], the IC50 turned out to be 33.7 nM.
`COCCO[C@H]1CC[C@H](Nc2nc(OC)c3c(-c4ccn5nccc5c4)ccn3n2)CC1` [Compound 16, 4-Methoxy-N-(trans-4-(2-methoxyethoxy)cyclohexyl)-5-(pyrazolo[1,5-a]pyridin-5-yl)pyrrolo[2,1-f][1,2,4]triazin-2-amine]: the IC50 turned out to be 34.4 nM.
`COc1nc(N[C@H]2CC[C@@H](NC(C)=O)CC2)nn2ccc(-c3ccn4nccc4c3)c12` [Compound 17, N-(cis-4-((4-methoxy-5-(pyrazolo[1,5-a]pyridin-5-yl)pyrrolo[2,1-f][1,2,4]triazin-2-yl)amino)cyclohexyl)acetamide]: the IC50 was 17.5 nM.
Regarding `COc1nc(N[C@H]2CC[C@H](NC(C)=O)CC2)nn2ccc(-c3ccn4nccc4c3)c12` [Compound 18, N-(trans-4-((4-Methoxy-5-(pyrazolo[1,5-a]pyridin-5-yl)pyrrolo[2,1-f][1,2,4]triazin-2-yl)amino)cyclohexyl)acetamide], the IC50 came to 7.4 nM.
On to `COc1nc(N[C@H]2CC[C@@](C)(O)CC2)nn2ccc(-c3ccn4nccc4c3)c12` [Compound 19, cis-4-((4-Methoxy-5-(pyrazolo[1,5-a]pyridin-5-yl)pyrrolo[2,1-f][1,2,4]triazin-2-yl)amino)-1-methylcyclohexan-1-ol], for which the IC50 was 14.1 nM.
As for `COc1nc(NC2CCN(CCF)CC2)nn2ccc(-c3ccn4nccc4c3)c12` [Compound 24, N-(1-(2-Fluoroethyl)piperidin-4-yl)-4-methoxy-5-(pyrazolo[1,5-a]pyridin-5-yl)pyrrolo[2,1-f][1,2,4]triazin-2-amine], the IC50 came to 14.3 nM.
Under `COc1nc(NC2CCN(C3COC3)CC2)nn2ccc(-c3ccn4nccc4c3)c12` [Compound 26, 4-Methoxy-N-(1-(oxetan-3-yl)piperidin-4-yl)-5-(pyrazolo[1,5-a]pyridin-5-yl)pyrrolo[2,1-f][1,2,4]triazin-2-amine] stands 7.1 nM; under `COc1nc(NC2CCN(C(C)=O)CC2)nn2ccc(-c3ccn4nccc4c3)c12` [Compound 27, 1-(4-((4-Methoxy-5-(pyrazolo[1,5-a]pyridin-5-yl)pyrrolo[2,1-f][1,2,4]triazin-2-yl)amino)piperidin-1-yl)ethan-1-one], 9960 nM; under `COc1nc(N[C@@H]2CCNC[C@@H]2F)nn2ccc(-c3ccn4nccc4c3)c12` [Compound 29], 9.2 nM.
Regarding `COc1nc(N[C@H]2CCNC[C@H]2F)nn2ccc(-c3ccn4nccc4c3)c12` [Compound 30, N-((3R,4S)-3-Fluoropiperidin-4-yl)-4-methoxy-5-(pyrazolo[1,5-a]pyridin-5-yl)pyrrolo[2,1-f][1,2,4]triazin-2-amine], the IC50 was 22.1 nM.
As for `COc1nc(N[C@@H]2CCN(C)C[C@@H]2F)nn2ccc(-c3ccn4nccc4c3)c12` [Compound 31, N-((3S,4R)-3-fluoro-1-methylpiperidin-4-yl)-4-methoxy-5-(pyrazolo[1,5-a]pyridin-5-yl)pyrrolo[2,1-f][1,2,4]triazin-2-amine], the IC50 stood at 7.7 nM.
Under `COc1nc(N[C@H]2CCN(C)C[C@H]2F)nn2ccc(-c3ccn4nccc4c3)c12` [Compound 34, N-((3R,4S)-3-Fluoro-1-methylpiperidin-4-yl)-4-methoxy-5-(pyrazolo[1,5-a]pyridin-5-yl)pyrrolo[2,1-f][1,2,4]triazin-2-amine] stands 6.2 nM; under `COc1nc(NC2CCOCC2)nn2ccc(-c3ccn4nccc4c3)c12` [Compound 36, 4-Methoxy-5-(pyrazolo[1,5-a]pyridin-5-yl)-N-(tetrahydro-2H-pyran-4-yl)pyrrolo[2,1-f][1,2,4]triazin-2-amine], 12.1 nM.
For `COc1nc(NC2CC3(C2)CN(C(C)=O)C3)nn2ccc(-c3ccn4nccc4c3)c12` [Compound 37, 1-(6-((4-Methoxy-5-(pyrazolo[1,5-a]pyridin-5-yl)pyrrolo[2,1-f][1,2,4]triazin-2-yl)amino)-2-azaspiro[3.3]heptan-2-yl)ethan-1-one], the IC50 was 2.5 nM.
As for `COc1nc(NC2CC3(CCN(C(C)=O)CC3)C2)nn2ccc(-c3ccn4nccc4c3)c12` [Compound 39, 1-(2-((4-Methoxy-5-(pyrazolo[1,5-a]pyridin-5-yl)pyrrolo[2,1-f][1,2,4]triazin-2-yl)amino)-7-azaspiro[3.5]nonan-7-yl)ethan-1-one], the IC50 stood at 2.9 nM.
As to `COc1nc(NC2CCC3(CC2)CN(C(C)=O)C3)nn2ccc(-c3ccn4nccc4c3)c12` [Compound 40, 1-(7-((4-Methoxy-5-(pyrazolo[1,5-a]pyridin-5-yl)pyrrolo[2,1-f][1,2,4]triazin-2-yl)amino)-2-azaspiro[3.5]nonan-2-yl)ethan-1-one], the IC50 came out at 1.6 nM.
Consider `COc1nc(N[C@H]2CC[C@@H](OC)CC2)nn2ccc(-c3ccc4nccn4c3)c12` [Compound 45, 5-(Imidazo[1,2-a]pyridin-6-yl)-4-methoxy-N-(cis-4-methoxycyclohexyl)pyrrolo[2,1-f][1,2,4]triazin-2-amine], for which the IC50 is 9.3 nM.
